According to ChEMBL document CHEMBL1126739, “Excursions in drug discovery” (J Med Chem, 1993):

Columns and labels:
[1] = molecular target: T1, Cholecystokinin receptor type A (Homo sapiens, UniProt P32238); test: Antagonistic activity against cholecystokinin type A receptor; assay type: functional
T1 sequence (P32238 whole entry): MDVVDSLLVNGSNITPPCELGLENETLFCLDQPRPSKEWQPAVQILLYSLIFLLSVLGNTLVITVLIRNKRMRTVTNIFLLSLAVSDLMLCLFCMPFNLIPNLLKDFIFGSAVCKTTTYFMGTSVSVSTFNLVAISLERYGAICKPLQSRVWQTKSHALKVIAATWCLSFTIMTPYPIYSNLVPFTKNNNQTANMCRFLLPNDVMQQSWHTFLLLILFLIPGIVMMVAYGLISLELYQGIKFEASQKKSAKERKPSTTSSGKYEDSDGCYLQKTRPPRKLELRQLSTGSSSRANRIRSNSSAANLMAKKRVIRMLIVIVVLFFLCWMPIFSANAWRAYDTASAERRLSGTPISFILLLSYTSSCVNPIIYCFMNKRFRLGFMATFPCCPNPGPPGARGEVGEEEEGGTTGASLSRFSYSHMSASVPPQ

Thermolysin = molecular target: T2, Thermolysin (Bacillus thermoproteolyticus, UniProt P00800); test: Inhibition of metallopeptidase thermolysin
T2 sequence (P00800 whole entry): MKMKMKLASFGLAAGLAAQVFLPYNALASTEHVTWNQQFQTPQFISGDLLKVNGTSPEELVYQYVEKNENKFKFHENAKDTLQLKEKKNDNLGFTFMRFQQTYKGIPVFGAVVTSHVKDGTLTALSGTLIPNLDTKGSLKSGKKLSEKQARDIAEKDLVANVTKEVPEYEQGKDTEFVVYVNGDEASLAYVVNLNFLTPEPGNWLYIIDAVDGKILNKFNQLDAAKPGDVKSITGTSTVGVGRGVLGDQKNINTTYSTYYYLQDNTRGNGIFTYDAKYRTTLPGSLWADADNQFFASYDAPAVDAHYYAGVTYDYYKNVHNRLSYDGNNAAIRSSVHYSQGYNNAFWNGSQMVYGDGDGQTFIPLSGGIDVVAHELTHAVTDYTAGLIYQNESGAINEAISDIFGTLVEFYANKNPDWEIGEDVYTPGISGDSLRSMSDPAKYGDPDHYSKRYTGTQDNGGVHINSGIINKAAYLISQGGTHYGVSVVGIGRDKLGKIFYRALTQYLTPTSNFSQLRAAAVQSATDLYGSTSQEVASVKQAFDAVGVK

[2] = molecular target: T3, Angiotensin-converting enzyme (Homo sapiens, UniProt P12821); test: Inhibition of Angiotensin I converting enzyme
T3 sequence (P12821 whole entry): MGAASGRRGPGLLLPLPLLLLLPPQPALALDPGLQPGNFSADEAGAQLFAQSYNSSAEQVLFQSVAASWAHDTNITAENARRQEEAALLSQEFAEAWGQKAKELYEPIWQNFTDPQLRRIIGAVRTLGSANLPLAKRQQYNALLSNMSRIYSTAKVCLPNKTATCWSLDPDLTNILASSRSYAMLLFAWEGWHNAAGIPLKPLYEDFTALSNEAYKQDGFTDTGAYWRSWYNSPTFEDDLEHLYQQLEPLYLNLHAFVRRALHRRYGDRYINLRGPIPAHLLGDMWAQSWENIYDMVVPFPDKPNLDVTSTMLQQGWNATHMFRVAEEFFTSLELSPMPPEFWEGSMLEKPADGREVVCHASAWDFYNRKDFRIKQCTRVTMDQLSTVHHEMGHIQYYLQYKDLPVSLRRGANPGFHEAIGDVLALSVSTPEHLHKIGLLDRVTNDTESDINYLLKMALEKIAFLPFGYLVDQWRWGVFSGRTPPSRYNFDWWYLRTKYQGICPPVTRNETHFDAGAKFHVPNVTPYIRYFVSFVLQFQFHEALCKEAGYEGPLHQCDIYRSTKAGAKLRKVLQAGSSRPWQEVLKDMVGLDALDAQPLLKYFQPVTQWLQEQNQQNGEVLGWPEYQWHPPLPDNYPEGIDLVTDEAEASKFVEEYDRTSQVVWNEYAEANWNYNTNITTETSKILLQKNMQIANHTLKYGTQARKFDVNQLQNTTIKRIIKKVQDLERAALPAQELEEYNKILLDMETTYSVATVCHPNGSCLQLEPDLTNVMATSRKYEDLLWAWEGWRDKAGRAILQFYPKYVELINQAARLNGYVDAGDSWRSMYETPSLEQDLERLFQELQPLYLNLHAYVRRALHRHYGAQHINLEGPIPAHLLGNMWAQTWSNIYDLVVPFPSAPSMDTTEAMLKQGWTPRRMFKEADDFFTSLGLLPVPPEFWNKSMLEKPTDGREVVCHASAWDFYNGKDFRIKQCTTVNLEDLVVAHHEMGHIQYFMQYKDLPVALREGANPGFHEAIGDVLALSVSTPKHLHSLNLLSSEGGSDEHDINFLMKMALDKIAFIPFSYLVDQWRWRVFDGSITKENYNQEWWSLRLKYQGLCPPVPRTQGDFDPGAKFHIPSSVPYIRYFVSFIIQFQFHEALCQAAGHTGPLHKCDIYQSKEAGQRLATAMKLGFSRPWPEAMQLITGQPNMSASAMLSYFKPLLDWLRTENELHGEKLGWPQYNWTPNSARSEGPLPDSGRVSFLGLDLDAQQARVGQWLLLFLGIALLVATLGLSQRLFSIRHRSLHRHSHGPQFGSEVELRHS

Renin = molecular target: T4, Renin (Homo sapiens, UniProt P00797); test: Inhibition of human renin
T4 sequence (P00797 whole entry): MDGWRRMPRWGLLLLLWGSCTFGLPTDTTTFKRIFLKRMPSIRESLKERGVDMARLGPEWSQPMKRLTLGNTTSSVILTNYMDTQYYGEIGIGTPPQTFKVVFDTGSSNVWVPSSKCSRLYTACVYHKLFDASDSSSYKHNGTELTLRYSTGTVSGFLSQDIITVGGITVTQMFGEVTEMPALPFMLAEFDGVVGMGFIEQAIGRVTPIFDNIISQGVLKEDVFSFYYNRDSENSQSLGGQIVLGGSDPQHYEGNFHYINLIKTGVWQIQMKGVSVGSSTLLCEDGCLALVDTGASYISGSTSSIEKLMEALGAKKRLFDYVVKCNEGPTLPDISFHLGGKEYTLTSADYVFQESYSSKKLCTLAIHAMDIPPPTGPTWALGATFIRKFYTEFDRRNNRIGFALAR

[3] = molecular target: T3, Angiotensin-converting enzyme; test: Inhibition of Angiotensin I converting enzyme at 3.3 x 10 E -4M concentration

SMILES	IC50 [2] [nM]	also measured
CC(C)C[C@@H]1N[C@H]2N(C1=O)c1ccccc1[C@@]2(O)C[C@@H]1NC(=O)c2ccccc2-n2c1nc1ccccc1c2=O [ASPERLICIN]		IC50 [1]: 1400 nM
CC(NP(=O)(O)CCc1ccccc1)C(=O)N1CCCC1C(=O)O (centres undefined)		IC50 (Thermolysin): 7 nM
C[C@@H](CCC(=O)O)C(=O)N1CCCC1C(=O)O (some centres undefined)	4900	
CC(CCC(=O)N1CCCC1C(=O)O)C(=O)O (centres undefined)	260000	
O=C(CCC(=O)N1CCCC1C(=O)O)NO (centres undefined)	50000	
C[C@@H](NCC(=O)O)C(=O)N1CCC[C@H]1C(=O)O	2400	
CC(C)(C)S(=O)(=O)C[C@@H](Cc1ccccc1)C(=O)NC1CSCCC[C@H](CN2CCOCC2)OC(=O)[C@H](O)[C@H](CC2CCCCC2)NC1=O (some centres undefined)		IC50 (Renin): 0.35 nM
CC(N[C@H](C)C(=O)N1CCC[C@H]1C(=O)O)C(=O)O (some centres undefined)	90	
O=C(O)CCC(=O)N1CCCC1C(=O)O (centres undefined)		inhibition [3]: 43%
